Test results published in patent US12084445B2, “Broad-spectrum carbapenems” (VenatoRx Pharmaceuticals, Inc., priority 2018, dated 2024).
Where two headings read alike, the source gives them in different places.

Columns and labels:
Type in all cases: cell-based
[1] = test system: S. aureus ATCC 33591 (methicillin-resistant); experiment: broth microdilution MIC assay, S. aureus ATCC 33591; conditions: Staphylococcus aureus
Procedure: (§1) To determine the ability of test compounds to potentiate the inhibition of the growth of bacterial strains, classic cell-based broth microdilution MIC assays were employed. MIC assays are performed according to CLSI methods except where otherwise noted (CLSI, 2011 and CLSI, 2009). The reference strains S. aureus ATCC 29213 (methicillin sensitive), S. aureus ATCC 33591 (methicillin-resistant), E. coli ATCC 25922 (wild-type/QC strain), P. aeruginosa ATCC 27853 (wild-type/QC strain), and the clinical isolate P. aeruginosa PA 8 were used to determine the ability of the exemplary carbapenem compounds to inhibit bacterial growth. An expanded panel of methicillin resistance S. aureus (MRSA) and Pseudomonas was also used to determine the ability of exemplary carbapenem compounds to inhibit bacterial growth across a broader representation of those species. To determine activity in MRSA and in addition to S. aureus ATCC 33591, S. aureus USA 300, USA 400 and USA 600, some of the most common clones found to cause human infection, were also used. To further gauge the impact on the carbapenem compounds due to various resistance mechanisms in Pseudomonas, the following strains were included: P. aeruginosa 35151 (hyper-permeable strain), P. aeruginosa AmexAB-OprM (an efflux pump knockout), and P. aeruginosa PA 3 (a clinical isolate of reduced carbapenem susceptibility). Briefly, cryo-preserved bacterial cultures of clinical strains are streaked for isolation on appropriate agar medium, in this case Mueller Hinton II agar. Following incubation to allow formation of colonies, these plates are sealed with parafilm and stored refrigerated for up to two weeks. For preparation of assay inocula and to ensure low variability, at least 5 colonies are picked from the agar plates with an inoculating loop and aseptically transferred to a culture tube containing 3 mL of Mueller-Hinton Broth (supplemented with divalent cations to required levels based on Manufacturers' specification). The broth culture is grown for 3-5 hours at 37° C. with shaking at 200 rpm. Meanwhile, 2-fold serial dilutions of test compounds are conducted in a 96 well plate with a final volume of 75 μL per well at 2-fold the final desired concentration. After the dilution plates are set up the growing cultures are then diluted in a cuvette containing MH II broth and the optical density is measured at 600 nm. Inocula are diluted such that 75 μL of this culture in Mueller-Hinton Broth results in a starting bacterial concentration of 5×10^5 CFU/mL when added to the dilution plates. The plates are incubated 16-20 hours at 37° C. The MIC is read visually as the lowest concentration well with no bacterial growth.
(§2) Representative results are shown in Tables 3, 4, and 5 where A represents an MIC>32 μg/mL, B represents an MIC between 8 and 32 μg/mL inclusive, C represents an MIC between 1 and 4 μg/mL inclusive, and D represents an MIC of <1 μg/mL. NT=Not Tested.

[2] = test system: P. aeruginosa ATCC 27853 (wild-type/QC strain); experiment: broth microdilution MIC assay, P. aeruginosa ATCC 27853; conditions: Pseudomonas aeruginosa
Procedure: as §1, §2

[3] = test system: clinical isolate P. aeruginosa PA 8; experiment: broth microdilution MIC assay, P. aeruginosa PA 8; conditions: Pseudomonas aeruginosa; Table 3; P. aeruginosa PA8
Procedure: as §1, §2

[4] = test system: E. coli ATCC 25922 (wild-type/QC strain); experiment: broth microdilution MIC assay, E. coli ATCC 25922; conditions: Escherichia coli
Procedure: as §1, §2

[5] = test system: P. aeruginosa 35151 (hyper-permeable strain); experiment: broth microdilution MIC assay, P. aeruginosa 35151; conditions: Pseudomonas aeruginosa, read-out: P. aeruginosa 35151 MIC
Procedure: as §1, §2

S. aureus USA 300 = experiment: broth microdilution MIC assay, S. aureus USA 300; conditions: Staphylococcus aureus
Procedure: as §1, §2

[6] = test system: P. aeruginosa ΔmexAB-OprM (an efflux pump knockout); experiment: broth microdilution MIC assay, P. aeruginosa ΔmexAB-OprM; conditions: Pseudomonas aeruginosa, 20 h, read-out: P. aeruginosa ΔmexAB-OprM MIC
Procedure: as §1, §2

S. aureus USA600 = experiment: broth microdilution MIC assay, S. aureus USA 600; conditions: Staphylococcus aureus
Procedure: as §1, §2

[7] = ATCC33591, Table 4, S. aureus 33591, read-out: S. aureus 33591 MIC
[8] = Table 4, S. aureus USA300, read-out: S. aureus USA300 MIC
[9] = ATCC27853, Table 5, P. aeruginosa 27853, read-out: P. aeruginosa 27853 MIC
[10] = ATCC25922, Table 4, E. coli 25922, read-out: E. coli 25922 MIC
[11] = Table 4, S. aureus USA600, read-out: S. aureus USA600 MIC

SMILES | MIC ([1]; ATCC 33591 / MRSA, Table 3, S. aureus 33591 (MRSA), read-out: S. aureus 33591 (MRSA) MIC) | MIC ([2]; ATCC27853, Table 3, P. aeruginosa 27853, read-out: P. aeruginosa 27853 MIC) | MIC [3] | MIC ([4]; ATCC25922, Table 3, E. coli 25922, read-out: E. coli 25922 MIC) | MIC [1, 7] | MIC [5] | MIC (S. aureus USA 300; [8]) | MIC [2, 9] | MIC [4, 10] | MIC [6] | MIC (S. aureus USA600; [11]) | MIC ([1]; ATCC33591, read-out: S. aureus 33591 MIC) | MIC (S. aureus USA 300; USA300, read-out: S. aureus USA300 MIC) | MIC ([2]; ATCC27853, read-out: P. aeruginosa 27853 MIC) | MIC ([4]; ATCC25922, read-out: E. coli 25922 MIC) | MIC (S. aureus USA600; USA600, read-out: S. aureus USA600 MIC)
C[C@@H](O)[C@H]1C(=O)N2C(C(=O)O)=C(S[C@@H]3CCN(Cc4ccc(C(N)CN)cc4)C3)[C@H](C)[C@H]12 (stereo partly drawn) [Example 34, (4R,5S,6S)-3-(((3R)-1-(4-(1,2-diaminoethyl)benzyl)pyrrolidin-3-yl)thio)-6-((R)-1-hydroxyethyl)-4-methyl-7-oxo-1-azabicyclo[3.2.0]hept-2-ene-2-carboxylic acid] | 1 to 4 µg/mL | 8 to 32 µg/mL | 8 to 32 µg/mL | < 1 µg/mL | – | – | – | – | – | – | – | – | – | – | – | –
C[C@@H](O)[C@H]1C(=O)N2C(C(=O)O)=C(S[C@@H]3CCN(CC4CCN(C)CC4)C3)[C@H](C)[C@H]12 [Example 39, (4R,5S,6S)-6-((R)-1-hydroxyethyl)-4-methyl-3-(((R)-1-((1-methylpiperidin-4-yl)methyl)pyrrolidin-3-yl)thio)-7-oxo-1-azabicyclo[3.2.0]hept-2-ene-2-carboxylic acid] | – | – | – | – | 1 to 4 µg/mL | < 1 µg/mL | 1 to 4 µg/mL | 1 to 4 µg/mL | < 1 µg/mL | 1 to 4 µg/mL | 1 to 4 µg/mL | – | – | – | – | –
C[C@@H](O)[C@H]1C(=O)N2C(C(=O)O)=C(S[C@@H]3CCN(CC4CCN(CCO)CC4)C3)[C@H](C)[C@H]12 [Example 40, (4R,5S,6S)-6-((R)-1-hydroxyethyl)-3-(((R)-1-((1-(2-hydroxyethyl)piperidin-4-yl)methyl)pyrrolidin-3-yl)thio)-4-methyl-7-oxo-1-azabicyclo[3.2.0]hept-2-ene-2-carboxylic acid] | – | – | – | – | 8 to 32 µg/mL | < 1 µg/mL | 1 to 4 µg/mL | 1 to 4 µg/mL | < 1 µg/mL | 1 to 4 µg/mL | 1 to 4 µg/mL | – | – | – | – | –
C[C@@H](O)[C@H]1C(=O)N2C(C(=O)O)=C(S[C@@H]3CCN(CC4CCN(CC(N)=O)CC4)C3)[C@H](C)[C@H]12 [Example 41, (4R,5S,6S)-3-(((R)-1-((1-(2-amino-2-oxoethyl)piperidin-4-yl)methyl)pyrrolidin-3-yl)thio)-6-((R)-1-hydroxyethyl)-4-methyl-7-oxo-1-azabicyclo[3.2.0]hept-2-ene-2-carboxylic acid] | – | – | – | – | 8 to 32 µg/mL | < 1 µg/mL | 1 to 4 µg/mL | 8 to 32 µg/mL | < 1 µg/mL | 1 to 4 µg/mL | 1 to 4 µg/mL | – | – | – | – | –
C[C@@H](O)[C@H]1C(=O)N2C(C(=O)O)=C(S[C@@H]3CCN(CC4CCNCC4F)C3)[C@H](C)[C@H]12 (stereo partly drawn) [Example 45, (4R,5S,6S)-3-(((3R)-1-((3-fluoropiperidin-4-yl)methyl)pyrrolidin-3-yl)thio)-6-((R)-1-hydroxyethyl)-4-methyl-7-oxo-1-azabicyclo[3.2.0]hept-2-ene-2-carboxylic acid] | – | – | – | – | – | < 1 µg/mL | – | – | – | 1 to 4 µg/mL | – | 1 to 4 µg/mL | 1 to 4 µg/mL | 1 to 4 µg/mL | < 1 µg/mL | 1 to 4 µg/mL
C[C@@H](O)[C@H]1C(=O)N2C(C(=O)O)=C(S[C@@H]3CCN(CC4CCNCC4(F)F)C3)[C@H](C)[C@H]12 (stereo partly drawn) [Example 46, (4R,5S,6S)-3-(((3R)-1-((3,3-difluoropiperidin-4-yl)methyl)pyrrolidin-3-yl)thio)-6-((R)-1-hydroxyethyl)-4-methyl-7-oxo-1-azabicyclo[3.2.0]hept-2-ene-2-carboxylic acid] | – | – | – | – | 8 to 32 µg/mL | < 1 µg/mL | 1 to 4 µg/mL | 8 to 32 µg/mL | < 1 µg/mL | 1 to 4 µg/mL | 1 to 4 µg/mL | – | – | – | – | –
C[C@@H](O)[C@H]1C(=O)N2C(C(=O)O)=C(S[C@@H]3CCN(CC4CCN(C(=O)CN)CC4)C3)[C@H](C)[C@H]12 [Example 47, (4R,5S,6S)-3-(((R)-1-((1-glycylpiperidin-4-yl)methyl)pyrrolidin-3-yl)thio)-6-((R)-1-hydroxyethyl)-4-methyl-7-oxo-1-azabicyclo[3.2.0]hept-2-ene-2-carboxylic acid] | – | – | – | – | 8 to 32 µg/mL | < 1 µg/mL | 1 to 4 µg/mL | 1 to 4 µg/mL | < 1 µg/mL | 1 to 4 µg/mL | 1 to 4 µg/mL | – | – | – | – | –
CNCC(=O)N1CCC(CN2CC[C@@H](SC3=C(C(=O)O)N4C(=O)[C@H]([C@@H](C)O)[C@H]4[C@H]3C)C2)CC1 [Example 48, (4R,5S,6S)-6-((R)-1-hydroxyethyl)-4-methyl-3-(((R)-1-((1-(methylglycyl)piperidin-4-yl)methyl)pyrrolidin-3-yl)thio)-7-oxo-1-azabicyclo[3.2.0]hept-2-ene-2-carboxylic acid] | – | – | – | – | 8 to 32 µg/mL | < 1 µg/mL | 1 to 4 µg/mL | 1 to 4 µg/mL | < 1 µg/mL | 1 to 4 µg/mL | 1 to 4 µg/mL | – | – | – | – | –
C[C@@H](O)[C@H]1C(=O)N2C(C(=O)O)=C(S[C@@H]3CCN(C[C@H]4CCN(C(=N)N)C4)C3)[C@H](C)[C@H]12 [Example 52, (4R,5S,6S)-3-(((R)-1-(((R)-1-carbamimidoylpyrrolidin-3-yl)methyl)pyrrolidin-3-yl)thio)-6-((R)-1-hydroxyethyl)-4-methyl-7-oxo-1-azabicyclo[3.2.0]hept-2-ene-2-carboxylic acid] | – | – | – | – | 1 to 4 µg/mL | < 1 µg/mL | < 1 µg/mL | 1 to 4 µg/mL | < 1 µg/mL | < 1 µg/mL | < 1 µg/mL | – | – | – | – | –
C[C@@H](O)[C@H]1C(=O)N2C(C(=O)O)=C(S[C@@H]3CCN(C[C@@H]4CCN(C(=N)N)C4)C3)[C@H](C)[C@H]12 [Example 54, (4R,5S,6S)-3-(((R)-1-(((S)-1-carbamimidoylpyrrolidin-3-yl)methyl)pyrrolidin-3-yl)thio)-6-((R)-1-hydroxyethyl)-4-methyl-7-oxo-1-azabicyclo[3.2.0]hept-2-ene-2-carboxylic acid] | – | – | – | – | 1 to 4 µg/mL | < 1 µg/mL | < 1 µg/mL | 1 to 4 µg/mL | < 1 µg/mL | < 1 µg/mL | 1 to 4 µg/mL | – | – | – | – | –
C[C@@H](O)[C@H]1C(=O)N2C(C(=O)O)=C(SC3CN(C4CCNCC4)C3)[C@H](C)[C@H]12 [Example 55, (4R,5S,6S)-6-((R)-1-hydroxyethyl)-4-methyl-7-oxo-3-((1-(piperidin-4-yl)azetidin-3-yl)thio)-1-azabicyclo[3.2.0]hept-2-ene-2-carboxylic acid] | – | – | – | – | 1 to 4 µg/mL | < 1 µg/mL | 1 to 4 µg/mL | 1 to 4 µg/mL | < 1 µg/mL | 1 to 4 µg/mL | < 1 µg/mL | – | – | – | – | –
C[C@@H](O)[C@H]1C(=O)N2C(C(=O)O)=C(SC3CN(CCC4CCNCC4)C3)[C@H](C)[C@H]12 [Example 56, (4R,5S,6S)-6-((R)-1-hydroxyethyl)-4-methyl-7-oxo-3-((1-(2-(piperidin-4-yl)ethyl)azetidin-3-yl)thio)-1-azabicyclo[3.2.0]hept-2-ene-2-carboxylic acid] | – | – | – | – | 1 to 4 µg/mL | < 1 µg/mL | 1 to 4 µg/mL | 1 to 4 µg/mL | < 1 µg/mL | 1 to 4 µg/mL | 1 to 4 µg/mL | – | – | – | – | –
